Here are results for seven molecules from patent US8338177B2, “Cell culture medium” (Lonza Biologics PLC, priority 2002, dated 2012).

Where only a bound is given, the exact number is not on record here.

Data set [1] deals with GS-NS0 cell line 6A1(100)3. Briefly: GS-NS0 6A1 fed-batch culture (shake flask / airlift bioreactor): growth and antibody productivity by protein A-HPLC. The following applies: for single cell productivity (qp): fed-batch shake flask. The procedure:
(§1) Where not specified, antibody productivity or titer was determined by protein A-HPLC.
The GS-NS0 cell line 6A1(100)3, 6A1 for short, secreting recombinant mouse/human chimeric IgG cB72.3 (Bebbington, 1992, supra) was used in all experimental settings under this section. Cell culture was either carried out in shake flask culture or in a fed-batch mode in a 101 standard airlift bioreactor, essentially as described (Bebbington, 1992). Feeds essentially comprised amino acids and carbohydrate as described above for high-density media and fermentation, respectively. Feed volume was at 4% of post-inocculation volume. Feed was initiated at a rate of 0.2 ml/Lh when viable cell density exceeded 14×10^5 cells/ml. Temperature was controlled at 36.5 degree centigrade; for airlift, air saturation was at 15%. pH was controlled at pH 7.00. Culture was inoculated at 2×10^5 viable cells/ml. Medium is serum- and essentially protein-free growth medium ProCH04-CDM (BioWhittaker) supplemented with […] methionine sulfoximine (MSX). Cells were pre-adapted to medium. […] Positively, it did prolong stationary phase upon fermentation.
Cumulative cell time (10^6 cell/h ml) was calculated by integration of the cell growth curve, essentially as described by Renard et al. (1988, Biotechnology Letters 10, 91-96).
Either sodium acetate or potassium acetate were added to shake flask culture during mid-exponential growth phase to the final concentrations stated in the respective sections of the table of FIG. 1. Cultures were counted daily by Trypan blue method and samples were taken for product analysis by means of protein A fractionation and HPLC analysis.
Duplicate cultures both for control and 10 mM sodium acetate supplemented culture were tested for viable cell concentration (determined by Trypan blue exclusion standard counting test). Feed was started at day 4. The acetate was not fed during growth phase as in FIG. 1 but was included in cell culture production medium right away to which the inocculum cells were added. […] The CCT remained essentially similar for all cultures.
Exp. 2 was conducted essentially as described above for exp. 1/FIG. 2, except that now 7.5 mM sodium acetate and a proprietary high-density culture medium was used, similar to the lipid supplemented high-density media described in EP435 911 A but distinct in employing less ethanolamine and no thioglycerole and keeping Tryptophan concentration constant at 19 mM by sensor-controlled automatic feeding. […] In contrast to exp. 1, the same maximum viable cell density could be achieved in the presence of actetate as compared to the control without acetate in the absence of any adverse effect on duration of stationary phase growth. Similarly, product concentration increased steadily over control and over time (FIG. 6).
In the permissible range, no increase in productivity could be seen at all, not even at the single cell level. The experiment was conducted essentially as described in exp. 1/FIG. 2, except that butyrate was added in the amounts shown instead of acetate. […] FIG. 9-11 show the effect of butyrate addition on CCT, antibody titer at harvest and single cell specific productivity (qp).

Data set [2] relates to cultured human endothelial cells. Particulars: acetate at 5 mM; cited from earlier work.
The test system of data set [3] is hybridoma cell line VPM 8. The data set can be described thus: VPM 8 hybridoma culture: CCT, harvest antibody titer, specific productivity. The procedure:
as §1
A dose response study for addition of sodium acetate was carried out for hybridoma cell line VPM 8 (ECACC No. 93113024, European Collection of cell cultures, supra) essentially as described in exp. 3, except that VPM 8 was grown in commercial, protein-free medium CD-Hybridoma (Invitrogen/U.K.) and in that no MSX was added, since not being a GS cell line. VPM 8 is a mouse hybridoma that was generated by conventional means of cell fusion with non-secreting myeloma cells and secretes a murine IgG1 antibody.
The experiment has been carried out essentially as described in exp. 5, except that acetate was substituted with n-butyrate in the amounts stated in the figures.

Data set [4] concerns CHO cell culture. Particulars: added to medium with 1 mM sodium butyrate; lithium salts 10 mM, LPS 1 μg/ml, sodium acetate 10 mM; cited from earlier work.
The mark [5] stands for this setting: added during mid-exponential growth phase.
Where [6] appears, read: 7.5 mM, high-density medium, Experiment 2.
[7] abbreviates: CD-Hybridoma protein-free medium, Experiment 5.

For the molecule `CCCC(=O)[O-].[Na+]` [Butyrate, sodium n-butyrate, reference compound], the “dose strongly toxic to the cells (rapid decrease of viable cell density)” value in data set [1] (Experiment 4) is on record as over 1 mM. Besides, the antibody productivity entry in data set [1] (butyrate added instead of acetate, Experiment 4) is listed as “does not increase antibody productivity”. For the same molecule, the “expression-enhancing effect on tPA production” value (“expression-enhancing effect” for short) in data set [2] is recorded as “outstanding effect”. Besides, in data set [3] (Experiment 6), the antibody titer entry is given as “not effective in increasing antibody titer” and the “toxicity for the cell line” value is recorded as “exceptional toxicity”.
Turning to `[Cl-].[Li+]` [LiCl, reference compound], the “modification of the effect of acetate addition” value in data set [1] (feed supplemented to final approx. 1-10 mM, data not shown) is recorded as “did not prove to modify the effect of acetate addition in any way”.
`CC(=O)[O-].[K+]` [potassium acetate]: the “single cell productivity (qp)” value in data set [1] (setting [5]) was “increased”.
On to `CCC(=O)O` [proprionate], for which, in data set [2], the “expression-enhancing effect” value was “found to have such effect”.
As for `CC(=O)[O-].[Na+]` [sodium acetate], the “protein yield enhancing effect in comparison to the butyrate control” value in data set [4] is on record as “literally no benefit over the control”. Further, in data set [1] (setting [6]), the “cell growth parameters (cell growth rate and cumulative cell time)” value is given as “only small decreases”; the harvest antibody concentration result is reported as “large increase”. Besides, the “productivity in fed-batch shake flask culture” value in data set [1] (10 mM, added during mid-exponential growth phase, compared with potassium acetate at 10 mM or 15 mM) was “performed even better than potassium acetate”. Further, in data set [1] (Experiment 1, acetate supplementation), the effect on growth result was “not to suppress growth”. Further, the “Increases in protein yield” value in data set [1] (acetate-supplemented culture compared to control, Experiment 1) was “up to 98%”. Besides, the “growth suppression in terms of maximum cell density” value in data set [1] (fed-batch bioreactor, 10 mM included in production medium) is reported as “No significant growth suppression”. Moreover, in data set [1] (setting [5]), the “single cell productivity (qp)” value was “increased”. In data set [1] (grown with 10 mM acetate (control 470 mg/L)), this molecule showed a protein yield of 768 mg/L. For the same molecule, the “optimal concentration with regard to antibody yield and process robustness” value in data set [1] (proprietary high-density culture medium, Experiment 2) amounted to 7.5 mM. Moreover, the “expression-enhancing effect” value in data set [2] is “did not differ significantly from the control”. Besides, in data set [3] (setting [7]), the “productivity compared to non-treated control” value is listed as “enhanced productivity” and the “tolerance by the cells” value was “tolerates acetate surprisingly easily in the mM range”.
Regarding `CCCCC(=O)O` [valerate], in data set [2], the “expression-enhancing effect” value is reported as “found to have such effect”.
“lipopolysaccharide [LPS, reference compound]”: in data set [4], the “protein yield enhancing effect in comparison to the butyrate control” value is reported as “about 4 times”.
